5 compounds from patent publication US20100210532A1, “USE OF NEUROPEPTIDE SF, ALONE OR IN COMBINATION WITH GLP-2, AS A THERAPEUTIC AGENT” (priority 2007, published 2010) can be followed below.

Where no end group is shown, it is not given here.

The test system of one assay is HIV-1IIIB. Put plainly: HIV-1 antiviral assay in CEM-SS cells (MTS readout). As to conditions: positive controls of the HIV-1 assay.
The test system of another assay is HCMV strain AD169. In words: HCMV plaque formation assay in MRC-5 cells. As to conditions: for inhibition of HCMV plaque formation as compared to the virus control experiment: 10 micrograms per ml, MRC-5 cells, 7-10 days, combination 0.95 mole peptide 1 and 1.05 mole peptide 2.
The next assay has as its system HUVEC. In words: Endothelial tube formation assay. Format: cell-based, human. Particulars: 10 micrograms per ml, 20 hours. As for the experimental part:
The endothelial tube formation assay is based on the ability of endothelial cells to form three-dimensional capillary-like tubular structures when cultured on a gel of basement membrane extract. The endothelial tube formation assay represents a powerful model for studying inhibition and induction of angiogenesis. Pre-labeled HUVEC with Calcein AM were seeded in a 96-well culture plate coated with extracellular metrix (Chemicon international Cat. ECM625) and treated with test peptides-10 micrograms per ml-in full growth medium. […] control was vehicle only. […] Duplicate wells for each treatment were photographed and quantitatevily analyzed for an average tubule length using image analysis software ImageProPlus. Raw data were expressed as average tubule […]±standard deviation. Statistic p values were computed using the Student's t-test.

The subject of a further assay is Interleukin-2 (IL-2). In words: Th1/Th2 cytokine profiling assay, IL-2. It is filed as cell-based, mouse. Particulars: 10 micrograms per ml, Ovalbumin-restimulated Balb/c spleen cells, 72 hours; for production of IL-2 in murine spleen cells, induced by: combination 0.95 mole peptide 1 and 1.05 mole peptide 2. From the text: (§1) The Balb/c mice (originated in 1923, it is a popular strain and is used in many different research disciplines. […] On day 50, spleens of the mice were harvested (3 weeks after last boost with Ovalbumin). […] This kit can be used to measure Interleukin-2 (IL-2), Interleukin-4 (IL-4), Interleukin-5 (IL-5), Interferon-γ (IFN-γ), and Tumor Necrosis Factor-α (TNF-α) protein levels in a single sample. The kit performance has been optimized for analysis of physiologically relevant concentrations ([…] levels) of specific cytokine proteins in tissue culture supernatants and serum samples.

The subject of assay [1] is Primary Human endothelial cells (HUVEC). In words: Endothelial cell migration assay. It is filed as cell-based. Particulars: 10 micrograms per ml, 22 hours.
Assay [2] has as its system hepatitis B virus (HBV) ayw strain. Put plainly: HBV experimental assay system, HepG2-2.2.15 cells, secreted HBV DNA by TaqMan PCR. Format: cell-based. As to conditions: 10 micrograms per ml, six days, combination 0.95 mole peptide 1 and 1.05 mole peptide 2.
For another assay, the system named is Interleukin-5 (IL-5). Put plainly: Th1/Th2 cytokine profiling assay, IL-5. Particulars: 10 micrograms per ml, Ovalbumin-restimulated Balb/c spleen cells, 72 hours; for change of the production of IL-5 in murine spleen cells: combination 0.95 mole peptide 1 and 1.05 mole peptide 2. It is filed as cell-based, mouse.
Description: as §1

For assay [3], the system named is Tumor Necrosis Factor-α (TNF-α). Put plainly: Th1/Th2 cytokine profiling assay, TNF-α. It is filed as cell-based, mouse. Particulars: 10 micrograms per ml, Ovalbumin-restimulated Balb/c spleen cells, 72 hours; for production of TNF-alpha in murine spleen cells, induced by: combination 0.95 mole peptide 1 and 1.05 mole peptide 2.
Description: as §1

The subject of another assay is Interleukin-4 (IL-4). Put plainly: Th1/Th2 cytokine profiling assay, IL-4. It is filed as cell-based, mouse. Particulars: 10 micrograms per ml, Ovalbumin-restimulated Balb/c spleen cells, 72 hours; for production of IL-4 in murine spleen cells, induced by: combination 0.95 mole peptide 1 and 1.05 mole peptide 2.
Description: as §1

The next assay relates to Human A549 cells. Put plainly: Apoptosis prevention assay (C2 ceramide, Annexin-5). It is filed as cell-based. Particulars: 10 micrograms per ml, 30 min pretreatment.
The next assay has as its system Interferon-γ (IFN-γ). Put plainly: Th1/Th2 cytokine profiling assay, IFN-γ. Format: cell-based, mouse. As to conditions: 10 micrograms per ml, Ovalbumin-restimulated Balb/c spleen cells, 72 hours.
Description: as §1

In the case of `CC(C)(C)NC(=O)[C@@H]1CN(Cc2cccnc2)CCN1C[C@@H](O)C[C@@H](Cc1ccccc1)C(=O)N[C@H]1c2ccccc2C[C@H]1O` [indinavir], the “antiviral activity of positive control compounds” value in the assay with HIV-1IIIB was “expected levels of antiviral activity”.

Take `Cc1cn([C@H]2C[C@H](N=[N+]=[N-])[C@@H](CO)O2)c(=O)[nH]c1=O` [AZT]: the “antiviral activity of positive control compounds” value with HIV-1IIIB was “expected levels of antiviral activity”.

As to `Nc1nc(O)c2ncn(COC(CO)CO)c2n1` [Ganciclovir, reference compound], in the assay on HCMV strain AD169 (positive control of the HCMV assay), the “antiviral activity of positive control compound” value is “expected levels of antiviral activity”.

As for “His-Ala-Asp-Gly-Ser-Phe-Ser-Asp-Glu-Met-Asn-Thr-Ile-Leu-Asp-Asn-Leu-Ala-Ala-Arg-Asp-Phe-Ile-Asn-Trp-Leu-Ile-Gln-Thr-Lys-Ile-Thr-Asp-OH [Peptide 2]”, the “inhibition of the tube formation of human endothelial cells” value with HUVEC is 12%. Besides, in the assay with Interleukin-2 (IL-2), the “IL-2 spleen cells (% of control)” value is 183.3 % of control and the “production of IL-2 in murine spleen cells, induced by” value was 83.3%. In addition, in assay [1], the “inhibition of the migration of human endothelial cells” value is on record as “did not inhibit”. Moreover, in assay [2], the “inhibition of HBV replication as compared to the virus control infection” value was determined as 59.2%. Also, in the assay on Interleukin-5 (IL-5), the “IL-5 spleen cells; TH2 response (% of control)” value was 108.4 % of control and the “change of the production of IL-5 in murine spleen cells” value was “did not significantly change”. For the same compound, in assay [3], the “TNF-a spleen cells; TH1 response (% of control)” value is on record as 143.7 % of control and the “production of TNF-alpha in murine spleen cells, induced by” value was 43.7%. In the assay on Interleukin-4 (IL-4), the “IL-4 spleen cells; TH2 response (% of control)” value is reported as 104.4 % of control and the “production of IL-4 in murine spleen cells, induced by” value was “did not significantly change”. The “reduction of the ceramide-induced apoptosis on human lung cells” value with Human A549 cells is on record as “did not reduce”. Further, the “IFNγ spleen cells; TH1 response (% of control)” value in the assay with Interferon-γ (IFN-γ) is reported as 132.7 % of control. Further, the “production of IFN-γ in murine spleen cells, induced by” value in the assay on Interferon-γ (IFN-γ) (combination 0.95 mole peptide 1 and 1.05 mole peptide 2) was found to be 32.7%. Besides, the “inhibition of HCMV plaque formation as compared to the virus control experiment” value with HCMV strain AD169 turned out to be 18.8%.

“Ser-Gln-Ala-Phe-Leu-Phe-Gln-Pro-Gln-Arg-Phe-NH2 (SQAFLFQPQRF-NH2) [Peptide 1]”: in the assay on HUVEC, the “inhibition of the tube formation of human endothelial cells” value is 19%. Also, in the assay on Interleukin-2 (IL-2), the “IL-2 spleen cells (% of control)” value is 112.4 % of control and the “production of IL-2 in murine spleen cells, induced by” value is recorded as “did not significantly change”. The “inhibition of the migration of human endothelial cells” value in assay [1] is on record as 33%. The “inhibition of HBV replication as compared to the virus control infection” value in assay [2] amounted to 16.7%. In addition, in the assay on Interleukin-5 (IL-5), the “IL-5 spleen cells; TH2 response (% of control)” value is recorded as 91.6 % of control and the “change of the production of IL-5 in murine spleen cells” value is “did not significantly change”. Besides, in assay [3], the “TNF-a spleen cells; TH1 response (% of control)” value is reported as 106.3 % of control and the “production of TNF-alpha in murine spleen cells, induced by” value is reported as “did not significantly change”. In the assay on Interleukin-4 (IL-4), the “IL-4 spleen cells; TH2 response (% of control)” value is listed as 242.2 % of control and the “production of IL-4 in murine spleen cells, induced by” value stood at 142.2%. Also, the “reduction of the ceramide-induced apoptosis on human lung cells” value in the assay with Human A549 cells came to 16.45%. For the same compound, in the assay with Interferon-γ (IFN-γ), the “IFNγ spleen cells; TH1 response (% of control)” value is given as 68.0 % of control and the “production of IFN-γ in murine spleen cells, decreased by” value turned out to be 32.0%. The “inhibition of HCMV plaque formation as compared to the virus control experiment” value in the assay with HCMV strain AD169 is 31.3%.
